Broadly, the IC50 is the point on the concentration scale where inhibition reaches its midpoint. Low readings indicate greater potency, high ones weaker potency.

Chain of HCV NS5B polymerase (P26663 2420-3010): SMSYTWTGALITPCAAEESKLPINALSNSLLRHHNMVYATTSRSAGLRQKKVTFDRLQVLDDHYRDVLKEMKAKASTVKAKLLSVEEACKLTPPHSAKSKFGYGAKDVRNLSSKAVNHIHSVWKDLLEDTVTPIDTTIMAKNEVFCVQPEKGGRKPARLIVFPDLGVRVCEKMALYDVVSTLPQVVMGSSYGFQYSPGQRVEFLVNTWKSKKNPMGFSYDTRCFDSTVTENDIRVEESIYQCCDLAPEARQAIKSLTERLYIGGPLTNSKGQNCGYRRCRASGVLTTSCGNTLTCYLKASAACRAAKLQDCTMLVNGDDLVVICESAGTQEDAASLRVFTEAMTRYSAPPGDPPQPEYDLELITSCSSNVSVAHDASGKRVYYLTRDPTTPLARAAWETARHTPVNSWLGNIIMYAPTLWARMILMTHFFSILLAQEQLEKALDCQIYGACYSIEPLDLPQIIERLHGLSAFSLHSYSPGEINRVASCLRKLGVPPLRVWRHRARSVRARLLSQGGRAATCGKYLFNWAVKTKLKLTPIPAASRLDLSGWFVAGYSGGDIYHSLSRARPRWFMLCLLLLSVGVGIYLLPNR

The assay addresses HCV NS5B polymerase (Hepatitis C virus genotype 1b, UniProt P26663). Briefly: NS5B Polymerase Inhibition Assay. The format is biochemical. The conditions noted are these: 50 nM enzyme, [α-33P]GTP, oligo (rG13)/poly rC, 75 min at 28° C. As for the experimental part:
NS5B Polymerase Inhibition Assay
Compounds were tested for HCV polymerase inhibition. Assays were performed in a 96-well streptavidin-coated FlashPlate using 50 nM enzyme, 0.5 μCi of [α-^33P]GTP, 0.63 μM GTP, and 250 nM 5′biotinylated oligo (rG13)/poly rC in 20 mM Tris-HCl, pH 7.5, 5 mM MgCl2, 20 mM NaCl, 5 mM dithiothreitol, and 0.1 g/L BSA. The reaction was stopped by aspiration after 75 min at 28° C. and the plate was washed several times. After washing, incorporated radioactivity was counted using a Microbeta scintillation counter.
For `CCCCn1nc(C(C)(C)CO)c(O)c(C2=Nc3ccc(OC)cc3S(=O)(=O)N2)c1=O` [Compound 14, 2-Butyl-5-hydroxy-6-(2-hydroxy-1,1-dimethyl-ethyl)-4-(7-meth-oxy-1,1-dioxo-1,2-dihydro-1λ^6-benzo[1,2,4]thiadiazin-3-yl)-2H-py-ridazin-3-one], the IC50 was 10 to 50 µM.
Consider `O=c1c(C2=Nc3ccc(O)cc3S(=O)(=O)N2)c(O)c(-c2cccs2)nn1Cc1ccccc1` [Compound 6, 2-Benzyl-5-hydroxy-4-(7-hydroxy-1,1-dioxo-1,2-dihydro-1λ^6-ben-zo[1,2,4]thiadiazin-3-yl)-6-thiophen-2-yl-2H-pyridazin-3-one], for which the IC50 is under 10 µM.
As to `COc1ccc2c(c1)S(=O)(=O)NC(c1c(O)c(-c3sccc3C)nn(CCC(C)C)c1=O)=N2` [Compound 61, 5-Hydroxy-4-(7-methoxy-1,1-dioxo-1,2-dihydro-1λ^6-ben-zo[1,2,4]thiadiazin-3-yl)-2-(3-methyl-butyl)-6-(3-methyl-thio-phen-2-yl)-2H-pyridazin-3-one], the IC50 was under 10 µM.
In turn, `CCCCn1nc(C(C)C)c(O)c(C2=Nc3ccc(OC)cc3S(=O)(=O)N2)c1=O` [Compound 10, 2-Butyl-5-hydroxy-6-isopropyl-4-(7-methoxy-1,1-dioxo-1,2-di-hydro-1λ^6-benzo[1,2,4]thiadiazin-3-yl)-2H-pyridazin-3-one] returned an IC50 of 10 to 50 µM.
`CC(C)CCc1nn(CCC(C)C)c(=O)c(C2=NS(=O)(=O)c3cc(OCC(N)=O)ccc3N2)c1O` [Compound 51, 2-{3-[5-Hydroxy-2,6-bis-(3-methyl-butyl)-3-oxo-2,3-dihydro-py-ridazin-4-yl]-1,1-dioxo-1,2-dihydro-1λ^6-ben-zo[1,2,4]thiadiazin-7-yloxy}-acetamide] had an IC50 of under 10 µM.
The same measure for `CCCCc1nn(CCCC)c(=O)c(C2=Nc3ccc(O)cc3S(=O)(=O)N2)c1O` [Compound 45, 2,6-Dibutyl-5-hydroxy-4-(7-hydroxy-1,1-dioxo-1,2-dihydro-1λ^6-ben-zo[1,2,4]thiadiazin-3-yl)-2H-pyridazin-3-one]: under 10 µM; for `CC(C)(C)CCn1nc(C(C)(C)C)c(O)c(C2=Nc3ccc(O)cc3S(=O)(=O)N2)c1=O` [Compound 67, 6-tert-Butyl-2-(3,3-dimethyl-butyl)-5-hydroxy-4-(7-hydroxy-1,1-di-oxo-1,2-dihydro-1λ^6-benzo[1,2,4]thiadiazin-3-yl)-2H-py-ridazin-3-one]: under 10 µM.
Compound `CC(C)CCn1nc(-c2cccs2)c(O)c(C2=NS(=O)(=O)c3sc(Cl)cc3N2)c1=O` [Compound 50, 4-(2-Chloro-7,7-dioxo-4,7-dihydro-1,7λ^6-dithia-4,6-diaza-inden-5-yl)-5-hydroxy-2-(3-methyl-butyl)-6-thiophen-2-yl-2H-py-ridazin-3-one] came in with an IC50 of 10 to 50 µM.
As for `CC(C)CCn1nc(C(C)C)c(O)c(C2=Nc3ccc(O)cc3S(=O)(=O)N2)c1=O` [Compound 29, 5-Hydroxy-4-(7-hydroxy-1,1-dioxo-1,2-dihydro-1λ^6-ben-zo[1,2,4]thiadiazin-3-yl)-6-isopropyl-2-(3-methyl-butyl)-2H-py-ridazin-3-one], the IC50 lay within 10 to 50 µM.
Regarding `Cc1ccsc1-c1nn(CCC(C)C)c(=O)c(C2=NS(=O)(=O)c3cc(OCC(N)=O)ccc3N2)c1O` [Compound 65, 2-{3-[5-Hydroxy-2-(3-methyl-butyl)-6-(3-methyl-thiophen-2-yl)-3-ox-o-2,3-dihydro-pyridazin-4-yl]-1,1-dioxo-1,2-dihydro-1λ^6-ben-zo[1,2,4]thiadiazin-7-yloxy}-acetamide], the IC50 is under 10 µM.
The same measure for `COc1ccc2c(c1)S(=O)(=O)NC(c1c(O)c(-c3cccn3C)nn(CCC(C)C)c1=O)=N2` [Compound 28, 5-Hydroxy-4-(7-methoxy-1,1-dioxo-1,2-dihydro-1λ^6-ben-zo[1,2,4]thiadiazin-3-yl)-2-(3-methyl-butyl)-6-(1-methyl-1H-pyr-rol-2-yl)-2H-pyridazin-3-one]: 10 to 50 µM.

For the origin of these results see patent US20060189602A1, “Pyridazinone compounds” (Anadys Pharmaceuticals, Inc., priority 2004, published 2006).
